According to patent US5877165A, “Boronated porhyrins and methods for their use” (priority 1997, dated 1999):
Entries after “also recorded” stand apart in the source; their conditions may differ.

Tests used:
[1] = Toxicity testing of NiTCP, MnTCP and CuTCP in normal mice (Example 13, Table 3); type: in vivo, BALB/c mice; details: 4 days after last of 6 ip injections
Protocol: Levels of glucose [GLU], blood urea nitrogen [BUN], blood creatinine [BCR], alanine transaminase [ALT], aspartate transaminase [AST], alkaline phosphatase [ALP], total protein [TPR], albumin [ALB], and creatine phosphokinase [CPK] were determined in blood plasma using a Cobas Fara II microanalysis system. Blood platelets [PLT] and white blood cells [WBC] were counted using a Serono-Baker System 9000 automated hematology microanalyzer.
Compounds prepared as in Example 1B and 1C were formulated with 6% Cremophor EL [CRM] and 12% propylene glycol [PrG] in saline. Total doses of MnTCP and CuTCP of 174 and 223 μg/g body weight, respectively, were administered to normal BALB/c mice. Each mouse was given 6 intraperitoneal [ip] injections over a period of 32 hours. Mice were euthanized 4 days after the last injection and chemical, enzymatic and hematological analyses of their blood were compared to those of similar mice given NiTCP at a dose of 252 μg/g body weight.

[2] = total doses up to 272 μg/gbw, n>80 mice (Miura et al., 1996); cited from earlier work
[3] = Hematological, enzymatic and chemical blood analyses and weight change, mice with KHJJ mammary carcinomas (Examples 4-7, Table 1); type: in vivo, BALB/c mice; details: NiTCP 160 or BPA 900 μg/gbw; 6-78 hr
Protocol: Female BALB/c mice (Taconic Farms, Germantown, N.Y.) (20-25 g) were implanted with either KHJJ or EMT-6 tumors. For KHJJ tumors, 1-3 mm^3 tumor fragments were implanted subcutaneously (s.c.) in the dorsal thorax of each mouse using an 18-gauge trocar. For EMT-6 tumors, 2.5×10^5 cells were implanted similarly using a 27-gauge needle. EMT-6 tumor cells were grown alternately in vivo and in vitro. Single-cell suspensions were prepared from mouse-grown tumors by trypsinization. These were grown in cell culture for several passages and then were frozen in 10% DMSO and stored in liquid nitrogen. Prior to implantation in mice, the cells were thawed and grown in tissue culture in Alpha-MEM with 10% FBS for several passages. […]
Levels of glucose [GLU], blood urea nitrogen [BUN], blood creatinine [BCR], alanine transaminase [ALT], aspartate transaminase [AST], alkaline phosphatase [ALP], total protein [TPR], albumin [ALB], and creatine phosphokinase [CPK] were determined in blood plasma using a Cobas Fara II microanalysis system. Blood platelets [PLT] and white blood cells [WBC] were counted using a Serono-Baker System 9000 automated hematology microanalyzer. […]

EMT-6 mammary tumors = assay: Experiment III: boron concentrations in tissues, mice bearing EMT-6 tumors (Table 8); set-up: species or system BALB/c mice; details: mouse, in vivo, ip, 183 mg/kg
Protocol: Lipophilic porphyrins 1, 2, 4, 5, and 6 were injected as emulsions in either 3% or 9% CRM and either 6% or 18% PRG with saline as previously described in Example 2 above. Water soluble porphyrins 3 and 7 were dissolved in saline. BPA was solubilized as a fructose complex.
Female BALB/c mice (from Taconic Farms, Germantown, N.Y.) (20-25 g) were implanted with either KHJJ or EMT-6 tumors according to the procedure described in Example 3A above.
Under deep halothane anesthesia leading to euthanasia, right ventricular blood was collected in Microtainer (Becton-Dickinson, Rutherford, N.J.) tubes containing EDTA for hematological analyses and boron assays of whole blood and in Microtainer™ tubes containing lithium heparin for chemical analyses and enzyme assays of blood plasma. Tumor, brain, fat, muscle, and liver tissues were sampled at necropsy for boron analyses.
In Experiment III, NiTCP and NiTCP-H were compared in mice bearing EMT-6 mammary tumors. Each porphyrin was administered via 6 i.p. injections over a period of 32 hours and the mice were euthanized 39 hours and 90 hours after the last injection.
Hematological, chemical and enzymatic tests were carried out as described in Example 3 above. Nonparametric statistical analyses were carried out using the Wilcoxon Two-Sample Test in accordance with procedures described in Slatkin, D.N., 1995. Boron analyses were conducted in accordance with the procedure described in Example 3 above. Fat and liver tissues were assayed for ^10 B by prompt-gamma spectroscopy as described in Fairchild, et al., 1986. These measurements were multiplied by 5.0 to give total boron concentrations due to the use of boron of natural isotope abundance in the syntheses of all boronated porphyrins reported.

[4] = Overall ranking of boronated porphyrins for BNCT guided by biodistribution and toxicity tests in mice (Table 11)
Protocol: The higher the numerical value, the better the performance of that porphyrin for that property. […] Although VCDP was able to deliver therapeutic amounts of boron to tumor, such side effects such as thrombocytopenia, which was induced within 3 hours after injections, weight loss, and the altered hepatic enzymes were serious enough to rank VCDP considerably behind the TCP's and the TCP-H's (Miura et al., 1992). In addition, the 80-hour drug administration period and the 90-hour blood clearance period are of great inconvenience. Moreover, this 4-day difference between the VCDP and the TCP (or TCP-H) dose and clearance schedules would translate into a 4-day greater delay between initiation of drug administration and neutron irradiation which would allow greater tumor growth to occur.
[…]
biodistribution and toxicity tests in mice. An asterisk indicates

In the case of “Nickel Tetracarboranylphenylporphyrin [NiTCP]”, the “toxicity / thrombocytopenia, in words” value [1] is listed as “nontoxic”, the “mortality and toxicity, in words” value [2] is listed as “no mortality (n>80) nor any substantial toxicity” and the “toxicity, in words” value [3] is listed as “some minor, evidently transient, weight loss was noted six hours after the last NiTCP injection; also recorded: The BUN levels in mice given NiTCP at all three time points were higher than those in mice given BPA; also recorded: The ALP and ALT were somewhat depressed 78 hours after injections”. For the same substance, the “Boron concentration, Blood” value (EMT-6 mammary tumors; 39 h) was 2.8 (0.8-11.4) μg B/g, the “Boron concentration, Brain” value (EMT-6 mammary tumors; 39 h) was 1.6 (1.0-2.5) μg B/g and the “Boron concentration, Liver” value (EMT-6 mammary tumors; 39 h) was 201 (162-251) μg B/g. For the same substance, the “Boron concentration, Tumor” value (EMT-6 mammary tumors; 39 h) was 40 (26-73) μg B/g, the “Boron concentration, Blood” value (EMT-6 mammary tumors; 90 h) was 0.3 (0.1-0.3) μg B/g and the “Boron concentration, Brain” value (EMT-6 mammary tumors; 90 h) was 4.2 (1.3-6.0) μg B/g. For the same substance, the “Boron concentration, Liver” value (EMT-6 mammary tumors; 90 h) was 226 (176-284) μg B/g, the “Drug tolerance/deliverable boron (ranking)” value [4] was 4 and the “Lipophilicity (ranking)” value [4] was 2. The “Tumor uptake (normalized) (ranking)” value [4] was 3, the “Tumor:Blood (ranking)” value [4] was 3 and the “toxicity, in words (general)” value ([4]; in vivo, at (potentially) therapeutic doses) was “substantially less toxic”.
